In the supplement of paper PMC6045584:

Experiments:
Assay in all cases: area under dose-response curve of surviving fraction (unscaled, Aref=0) (surviving fraction x log10(nM)); higher = more resistant
Conditions in all cases: exposure time: 5 days; dose range 0.5-1000 nM
17-AAG = compound: C=CCNC1=C2C[C@@H](C)C[C@H](OC)[C@H](O)[C@@H](C)/C=C(\C)[C@H](OC(N)=O)[C@@H](OC)/C=C\C=C(/C)C(=O)NC(=CC1=O)C2=O [17-AAG]
Outline: (§1)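 Three screens per tumour cell line were run in 384-well plates at eight inhibitor concentrations from 0.5 to 1000 nM over five days. Surviving fractions, from CellTiter-Glo luminescence normalised to DMSO-only wells, were fitted with 3-parameter logistic curves in the drc R package. The reported area under the curve is the unscaled activity area. It spans log10 dose, and Aref is 0.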

[1] = compound: CCN(CC)CCCCNc1ncc2cc(-c3cc(OC)cc(OC)c3)c(NC(=O)NC(C)(C)C)nc2n1
Outline: as §1

SALINOMYCIN = compound: CC[C@@H](C(=O)[C@@H](C)[C@@H](O)[C@H](C)[C@@H]1O[C@@H]([C@@H](CC)C(=O)O)CC[C@@H]1C)[C@H]1O[C@]2(C=C[C@@H](O)[C@]3(CC[C@@](C)([C@H]4CC[C@](O)(CC)[C@H](C)O4)O3)O2)[C@H](C)C[C@@H]1C [SALINOMYCIN]
Outline: as §1

ABT-737 = compound: CN(C)CC[C@H](CSc1ccccc1)Nc1ccc(S(=O)(=O)NC(=O)c2ccc(N3CCN(Cc4ccccc4-c4ccc(Cl)cc4)CC3)cc2)cc1[N+](=O)[O-] [ABT-737]
Outline: as §1

FLAVOPIRIDOL = compound: CN1CC[C@H](c2c(O)cc(O)c3c(=O)cc(-c4ccccc4Cl)oc23)[C@H](O)C1 [FLAVOPIRIDOL]
Outline: as §1

2-METHOXYESTRADIOL = compound: COc1cc2c(cc1O)CC[C@@H]1[C@@H]2CC[C@]2(C)[C@@H](O)CC[C@@H]12 [2-METHOXYESTRADIOL]
Outline: as §1

NUTLIN3 = compound: COc1ccc(C2=N[C@@H](c3ccc(Cl)cc3)[C@@H](c3ccc(Cl)cc3)N2C(=O)N2CCNC(=O)C2)c(OC(C)C)c1 [NUTLIN3]
Outline: as §1

DOXORUBICIN = compound: COc1cccc2c1C(=O)c1c(O)c3c(c(O)c1C2=O)C[C@@](O)(C(=O)CO)C[C@@H]3O[C@H]1C[C@H](N)[C@H](O)[C@H](C)O1 [DOXORUBICIN]
Outline: as §1

LAPATINIB = compound: CS(=O)(=O)CCNCc1ccc(-c2ccc3ncnc(Nc4ccc(OCc5cccc(F)c5)c(Cl)c4)c3c2)o1 [LAPATINIB]
Outline: as §1

VISMODEGIB = compound: CS(=O)(=O)c1ccc(C(=O)Nc2ccc(Cl)c(-c3ccccn3)c2)c(Cl)c1 [VISMODEGIB]
Outline: as §1

DECITABINE = compound: Nc1ncn([C@H]2C[C@H](O)[C@@H](CO)O2)c(=O)n1 [DECITABINE]
Outline: as §1

FLUOROURACIL = compound: O=c1[nH]cc(F)c(=O)[nH]1 [FLUOROURACIL]
Outline: as §1

RESVERATROL = compound: Oc1ccc(/C=C/c2cc(O)cc(O)c2)cc1 [RESVERATROL]
Outline: as §1

In the case of HS57T LUNG, the “area under dose-response curve” value (17-AAG) is reported as 1.35, the “area under dose-response curve” value [1] is reported as 2.66 and the “area under dose-response curve” value (SALINOMYCIN) is reported as 2.57. The “area under dose-response curve” value (ABT-737) was 3.45, the “area under dose-response curve” value (FLAVOPIRIDOL) was 2.07 and the “area under dose-response curve” value (2-METHOXYESTRADIOL) was 2.78. The “area under dose-response curve” value (NUTLIN3) was 3.4, the “area under dose-response curve” value (DOXORUBICIN) was 1.22 and the “area under dose-response curve” value (LAPATINIB) was 3.42. For the same test system, the “area under dose-response curve” value (VISMODEGIB) was 3.29, the “area under dose-response curve” value (DECITABINE) was 3.05 and the “area under dose-response curve” value (FLUOROURACIL) was 3.24. The “area under dose-response curve” value (RESVERATROL) was 3.35.
